The NIST ThermoML archive (doi:10.1021/je200811n)

Settings: Hot wire method

C=C(F)C(F)(F)F [2,3,3,3-tetrafluoro-1-propene]
Settings	thermal conductivity [W/m/K]
261.41 K, 6311 kPa, Liquid	0.07964
261.48 K, 992 kPa, Liquid	0.07655
261.48 K, 996 kPa, Liquid	0.07656
261.5 K, 6309 kPa, Liquid	0.07953
261.84 K, 987 kPa, Liquid	0.07643
261.85 K, 6313 kPa, Liquid	0.07948
261.87 K, 11445 kPa, Liquid	0.08189
261.88 K, 21642 kPa, Liquid	0.0867
261.96 K, 983 kPa, Liquid	0.07514
261.97 K, 1005 kPa, Liquid	0.07519
261.97 K, 6311 kPa, Liquid	0.07846
261.97 K, 11446 kPa, Liquid	0.0813
261.98 K, 21635 kPa, Liquid	0.08614
262.35 K, 11445 kPa, Liquid	0.08085
262.35 K, 16435 kPa, Liquid	0.08308
262.35 K, 21632 kPa, Liquid	0.08538
262.36 K, 6309 kPa, Liquid	0.0784
262.37 K, 990 kPa, Liquid	0.0754
262.38 K, 999 kPa, Liquid	0.07563
262.48 K, 21630 kPa, Liquid	0.08542
262.49 K, 11446 kPa, Liquid	0.08082
262.49 K, 16441 kPa, Liquid	0.08301
262.51 K, 984 kPa, Liquid	0.07532
262.51 K, 6308 kPa, Liquid	0.07834
262.53 K, 1003 kPa, Liquid	0.0754
262.87 K, 94 kPa, Gas	0.01103
262.87 K, 141 kPa, Gas	0.01112
262.87 K, 180 kPa, Gas	0.01121
262.87 K, 21632 kPa, Liquid	0.08568
262.89 K, 16441 kPa, Liquid	0.0831
262.9 K, 11444 kPa, Liquid	0.08074
262.93 K, 6308 kPa, Liquid	0.07833
262.95 K, 981 kPa, Liquid	0.07547
262.97 K, 1000 kPa, Liquid	0.07554
263.04 K, 21629 kPa, Liquid	0.08528
263.06 K, 16439 kPa, Liquid	0.0831
263.08 K, 11447 kPa, Liquid	0.08051
263.1 K, 94 kPa, Gas	0.01092
263.1 K, 139 kPa, Gas	0.01099
263.1 K, 178 kPa, Gas	0.01109
263.11 K, 6306 kPa, Liquid	0.07818
263.14 K, 981 kPa, Liquid	0.07525
263.15 K, 1006 kPa, Liquid	0.07526
263.3 K, 186 kPa, Gas	0.01073
263.33 K, 145 kPa, Gas	0.01079
263.34 K, 176 kPa, Gas	0.01103
263.35 K, 137 kPa, Gas	0.01093
263.36 K, 94 kPa, Gas	0.01083
263.41 K, 93 kPa, Gas	0.01084
263.45 K, 21625 kPa, Liquid	0.0853
263.47 K, 16441 kPa, Liquid	0.08318
263.51 K, 11446 kPa, Liquid	0.08071
263.55 K, 6310 kPa, Liquid	0.07796
263.59 K, 977 kPa, Liquid	0.0751
263.61 K, 184 kPa, Gas	0.01083
263.61 K, 1002 kPa, Liquid	0.07516
263.65 K, 21628 kPa, Liquid	0.08509
263.66 K, 143 kPa, Gas	0.01082
263.68 K, 16436 kPa, Liquid	0.08284
263.72 K, 11448 kPa, Liquid	0.08052
263.76 K, 94 kPa, Gas	0.01087
263.77 K, 6312 kPa, Liquid	0.07776
263.83 K, 978 kPa, Liquid	0.07472
263.83 K, 1003 kPa, Liquid	0.0748
263.97 K, 181 kPa, Gas	0.01086
264.03 K, 141 kPa, Gas	0.01087
264.1 K, 21626 kPa, Liquid	0.08524
264.13 K, 94 kPa, Gas	0.01089
264.14 K, 16440 kPa, Liquid	0.08287
264.18 K, 11446 kPa, Liquid	0.08043
264.33 K, 21622 kPa, Liquid	0.08504
264.34 K, 179 kPa, Gas	0.01089
264.38 K, 16435 kPa, Liquid	0.08267
264.41 K, 140 kPa, Gas	0.01091
264.42 K, 11443 kPa, Liquid	0.08017
264.55 K, 94 kPa, Gas	0.01091
264.75 K, 177 kPa, Gas	0.01092
264.83 K, 138 kPa, Gas	0.01094
264.99 K, 94 kPa, Gas	0.01095
271.81 K, 106 kPa, Gas	0.01176
271.82 K, 144 kPa, Gas	0.01183
271.83 K, 200 kPa, Gas	0.01195
272.04 K, 105 kPa, Gas	0.01163
272.04 K, 200 kPa, Gas	0.01186
272.05 K, 143 kPa, Gas	0.0117
272.22 K, 246 kPa, Gas	0.01157
272.22 K, 271 kPa, Gas	0.01155
272.24 K, 200 kPa, Gas	0.01151
272.28 K, 200 kPa, Gas	0.01178
272.29 K, 104 kPa, Gas	0.01154
272.29 K, 148 kPa, Gas	0.01151
272.3 K, 141 kPa, Gas	0.01161
272.34 K, 108 kPa, Gas	0.01153
272.5 K, 272 kPa, Gas	0.01161
272.54 K, 200 kPa, Gas	0.01154
272.6 K, 146 kPa, Gas	0.01157
272.67 K, 107 kPa, Gas	0.01162
272.83 K, 272 kPa, Gas	0.0116
272.84 K, 263 kPa, Gas	0.01161

Settings	thermal conductivity [W/m/K]
263.15 K, Liquid	0.07493
